By MIC is commonly meant the smallest concentration in the dilution series that meets the test's criterion for growth inhibition.

Structures are written as SMILES. Read-outs that look alike come from different tables or passages of the source.

The text below walks through data of paper PMC7922564, “Molecular Insights into an Antibiotic Enhancer Action of New Morpholine-Containing 5-Arylideneimidazolones in the Fight against MDR Bacteria” (International Journal of Molecular Sciences, 2021).

Experiment [1] concerns S. aureus USA300 LAC. In words: MIC reduction assay (antibiotic adjuvant), S. aureus USA300 LAC. It is filed as cell-based, Staphylococcus aureus. The arrangement: key: A = MIC of antibiotic alone / MIC with compound. The source says: (§1) The adjuvant properties of compounds 14–16 in S. aureus clinical isolates were next tested in combination with oxacillin and the penicillinase-susceptible β-lactam antibiotic, ampicillin. The second β-lactam antibiotic was chosen based on its vulnerability to enzymatic hydrolysis, another important resistance mechanism in S. aureus against penicillin. Therefore, the results of the MIC reduction assay obtained on the activity of arylideneimidazolones combined with oxacillin and ampicillin, respectively, might provide further insights into the possible mechanism of action of the compounds. Complete results are presented in Supplementary (Tables S4 and S5), while condensed in Figure 6, in the case of desired activity noted. […] One possible explanation for the lack of adjuvant activity of compounds in some of the strains selected for this study might be that these strains express PBP2a only when induced by the antibiotic, while others, for which potentiating activity of compounds was observed, produce this protein in high levels straight away.
(§2) Determination of MIC values, i.e., intrinsic antibacterial activity, of products and antibiotics (oxacillin, ampicillin, vancomycin, ciprofloxacin, and erythromycin) in the presence and absence of compounds tested was conducted by the use of a standard 2-fold microdilution method in cation-adjusted Mueller Hinton broth following the Clinical and Laboratory Standards Institute (CLSI) guidelines. The MIC values were detected using an Infinite M200 pro Tecan microplate reader (Tecan® France, SA-Lyon, France). MIC determinations were conducted in 96-well microtiter plates and repeated 3–4 times.
(§3) Initially, MICs of a series of imidazolone derivatives were assessed against susceptible (reference) and MDR strains of staphylococci. Next, MIC values of the aforementioned antibiotics were determined in the absence and presence of imidazolone derivatives to assess the chemosensitizing effect of these compounds. […] 5-arylideneimidazolones and 5-arylidenethiazolones, which precipitated after addition to bacterial suspension in MH II medium, were tested at the highest concentrations at which precipitation was not observed. […] Antibacterial activity of compounds and antibiotics ampicillin, vancomycin, ciprofloxacin, and erythromycin was recorded as the lowest concentration of molecules able to inhibit bacterial growth after 18 h incubation at 37 °C. The incubation of bacterial strains exposed to oxacillin paired with compounds tested was conducted at 35 °C and extended to 24 h due to frequent occurrence of heterogeneity among MRSA strains. The results are presented as activity gain (A) parameter which was calculated as ratio of MIC of a certain antibiotic (MICAnt) to its MICAnt+Comp, observed in combination with a tested compound (7, 12–16, 19, or 20; Equation (1)). (1) A=(MICAnt/MICAnt+Comp)

Experiment [2] has as its system AcrAB-TolC efflux pump in K. aerogenes strain Ea-289. Briefly: Real-time efflux (RTE) assay, 1,2'-dNA extrusion. It is filed as cell-based, Klebsiella aerogenes. The settings on record: compound 100 µM; IE=100% total inhibition of efflux. As to the method:
Compounds 7, 12–16, 19, and 20 were also assessed for their EPI property in K. aerogenes strain Ea-289 with the use of a real-time efflux (RTE) assay. Results for compounds 16 and 20 were previously described. The experiment is based on the measurement of the extrusion of a fluorescent dye from bacterial cells overproducing efflux pump transporters in the presence and absence of compounds tested. The dye used in this assay, 1,2’ –dinaphthylamine (1,2’-dNA), is a substrate for the AcrAB-TolC efflux pump, and is strongly fluorescent upon incorporation into a phospholipid bilayer, although it is almost non-fluorescent in an aqueous solution [37, 38].
A likewise strong blocking efficacy (IE = 83 %) was also noticed for compound 12, while the lowest inhibitory effect was found for compound 13 (IE = 23 %).
The inhibitory activity of 5-arylideneimidazolone derivatives towards AcrAB-TolC mediated efflux of 1,2’-dNA was detected in K. aerogenes strain Ea-289 by using a real-time fluorometric method. In a first step, bacterial cells were loaded with the environment-sensitive fluorescent membrane probe, 1,2’-dNA, in the presence of the EPI carbonyl cyanide m-chlorophenylhydrazone (CCCP) which inactivated the pump by dissipating membrane potential. Next, compounds tested were added at the concentration of 100 µM and the efflux was energizing by automated injection of glucose at a dose of 50 µM. The fluorescence intensity was measured in a microplate reader (Tecan) with an excitation wavelength of λex = 370 nm and an emission wavelength of λem = 420 nm.

Experiment [3] has as its system S. aureus MM-O058. In words: MIC of compounds, S. aureus MM-O058. It is filed as cell-based. The settings on record: Staphylococcus aureus; MM-O058 (MSSA). Here is the method: (§4) Compounds 14–16 were tested further for their adjuvant-like effect with a set of ten additional S. aureus isolates. Firstly, MIC values of the molecules were evaluated in two clinical MSSA isolates (MM-O058, MM-N072), seven MRSA (USA300 LAC, 5328, LG-N017, MM-O021, R45-CC45, R46-CC22, COL) and one VISA strain (Mu50). Detailed results are presented in the Supplementary section (Table S3).
as §2
as §3, with “The incubation of bacterial strains exposed to oxacillin paired with compounds tested was conducted at 35 °C and extended to 24 h due to frequent occurrence of heterogeneity among MRSA strains.” left out, “(1) A=(MICAnt/MICAnt+Comp)” left out

Another experiment deals with S. aureus LG-N017. In words: MIC reduction assay (antibiotic adjuvant), S. aureus LG-N017. It is filed as cell-based, Staphylococcus aureus.
Text: as §1, §2, §3

The subject of a further experiment is S. aureus ATCC 25923. In words: MIC determination (microdilution), S. aureus ATCC 25923. It is filed as cell-based, Staphylococcus aureus. The settings on record: Staphylococcus aureus. As to the method:
as §2, §3

For another experiment, the system named is S. aureus Mu50. In words: MIC reduction assay (antibiotic adjuvant), S. aureus Mu50.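 Note: compound at no more than one quarter of its own MIC.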 The arrangement: key: A = MIC of antibiotic alone / MIC with compound. It is filed as cell-based, Staphylococcus aureus.
Text: as §1, §2, §3

Experiment [4] has as its system S. aureus MM-O058. Briefly: MIC reduction assay (antibiotic adjuvant), S. aureus MM-O058. It is filed as cell-based, Staphylococcus aureus.
Text: as §1, §2, §3

Another experiment deals with K. aerogenes Ea-289. Briefly: MIC reduction assay (antibiotic adjuvant), K. aerogenes Ea-289.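 Note: compound at no more than one quarter of its own MIC.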 It is filed as cell-based, Klebsiella aerogenes. As to the method: At first, MIC values of compounds were determined (Table S15, Supplementary). Next, their abilities to reduce MICs of the AcrAB-TolC substrates doxycycline (a tetracycline-class antibiotic) and erythromycin were studied (Table S16, Supplementary).
A subset of compounds, namely 7, 12–16, 19, 20, was also examined for the potential to increase the effectiveness of the antibiotics chloramphenicol, erythromycin, doxycycline, and the fluoroquinolone antibiotic norfloxacin, which all are substrates for AcrAB-TolC in K. aerogenes. In addition to strain Ea-289, the adjuvant-like effect of the compounds was investigated in strain CM-64, which also overexpresses the AcrAB-TolC efflux pump, although it has no changes in porin content, and in the Ea-289 derivatives, i.e., Ea-294 and Ea-308, which are devoid of AcrAB (Table S17, Supplementary).
as §3
MIC values of 5-arylideneimidazolone derivatives were determined following CLSI recommendations as in the methods described for S. aureus (Section 3.3.1).

Experiment [5] relates to S. aureus USA300 LAC. Briefly: MIC of compounds, S. aureus USA300 LAC. It is filed as cell-based. The settings on record: Staphylococcus aureus. Here is the method:
as §4, §2
as §3, with “The incubation of bacterial strains exposed to oxacillin paired with compounds tested was conducted at 35 °C and extended to 24 h due to frequent occurrence of heterogeneity among MRSA strains.” left out, “(1) A=(MICAnt/MICAnt+Comp)” left out

Where [6] appears, read: ATCC25923, unstarred values of column MIC value/no precipitation, read-out: MIC value.
[7] abbreviates: doxycycline, chloramphenicol, norfloxacin, erythromycin.
[8] abbreviates: USA300 LAC (MRSA), read-out: MIC value of compounds.

As for `NC1=N/C(=C\c2ccc(-c3ccccc3)cc2)C(=O)N1CCCN1CCOCC1` [Compound 15], the “A (activity gain)” value is 2 in the experiment on S. aureus USA300 LAC [1] (ampicillin); 1 with S. aureus USA300 LAC [1] (ciprofloxacin); 1 with S. aureus USA300 LAC [1] (erythromycin); 1 with S. aureus LG-N017 (ampicillin); 1 in the experiment with S. aureus LG-N017 (erythromycin); 2 in the experiment on S. aureus Mu50 (ampicillin). In addition, the “A (activity gain)” value in the experiment with S. aureus Mu50 (ciprofloxacin), with S. aureus Mu50 (erythromycin), with S. aureus Mu50 (vancomycin), in the experiment on S. aureus MM-O058 [4] (ampicillin), in the experiment with S. aureus MM-O058 [4] (erythromycin) and in the experiment on K. aerogenes Ea-289 (doxycycline) was 1 each time. In addition, the “A (activity gain)” value in the experiment with K. aerogenes Ea-289 (setting [7]) and in the experiment with K. aerogenes Ea-289 (erythromycin) was 1 throughout. For the same compound, the “Inhibition efficiency (IE) towards extrusion of 1,2'-dNA” value (from here on “Inhibition efficiency”) in experiment [2] is 72%. Moreover, the MIC in the experiment on S. aureus MM-O058 [3] was 250 µM; in the experiment on S. aureus ATCC 25923 (ATCC25923, read-out: MIC value), 125 µM; with S. aureus ATCC 25923 (setting [6]), 31.2 to 250 µM; in the experiment on S. aureus USA300 LAC [5] (MRSA / USA300, read-out: MIC value of compounds) it was 125 µM.

With `NC1=N/C(=C\c2cccc(Oc3ccccc3)c2)C(=O)N1CCCN1CCOCC1` [Compound 16], the “A (activity gain)” value in the experiment with S. aureus USA300 LAC [1] (ampicillin) is 1; in the experiment on S. aureus USA300 LAC [1] (ciprofloxacin), 1; in the experiment on S. aureus USA300 LAC [1] (erythromycin), 1; in the experiment on S. aureus LG-N017 (ampicillin), 1; with S. aureus LG-N017 (erythromycin), 1; in the experiment with S. aureus Mu50 (ampicillin) it was 2. Moreover, the “A (activity gain)” value in the experiment with S. aureus Mu50 (ciprofloxacin), in the experiment with S. aureus Mu50 (erythromycin), in the experiment on S. aureus Mu50 (vancomycin), with S. aureus MM-O058 [4] (ampicillin) and with S. aureus MM-O058 [4] (erythromycin) was 1 throughout. Besides, the values for the MIC with S. aureus MM-O058 [3], in the experiment with S. aureus ATCC 25923 (setting [6]) and in the experiment on S. aureus USA300 LAC [5] (setting [8]) were 250 µM, 31.2 to 250 µM and 250 µM, respectively.

Turning to `NC1=N/C(=C\c2ccc3c(c2)Cc2ccccc2-3)C(=O)N1CCCN1CCOCC1` [Compound 19], in experiment [2], the “Inhibition efficiency” value was found to be 90%. In addition, in the experiment with S. aureus ATCC 25923 (setting [6]), the MIC is 31.2 to 250 µM. For the same compound, the “A (activity gain)” value with K. aerogenes Ea-289 (doxycycline), in the experiment on K. aerogenes Ea-289 (setting [7]) and in the experiment on K. aerogenes Ea-289 (erythromycin) was 1 throughout.

Turning to `NC1=N/C(=C\c2ccc(-c3ccccc3)cc2)C(=O)N1CCN1CCOCC1` [Compound 14], the “A (activity gain)” value in the experiment with S. aureus USA300 LAC [1] (ampicillin) came out at 1; in the experiment on S. aureus USA300 LAC [1] (ciprofloxacin), 1; with S. aureus USA300 LAC [1] (erythromycin), 1; with S. aureus LG-N017 (ampicillin) it was 2; in the experiment with S. aureus LG-N017 (erythromycin), 1; in the experiment with S. aureus Mu50 (ampicillin) it was 1. Moreover, the “A (activity gain)” value in the experiment on S. aureus Mu50 (ciprofloxacin), in the experiment with S. aureus Mu50 (erythromycin), with S. aureus Mu50 (vancomycin), in the experiment on S. aureus MM-O058 [4] (ampicillin), with S. aureus MM-O058 [4] (erythromycin) and in the experiment with K. aerogenes Ea-289 (doxycycline) was 1 each time. Moreover, the “A (activity gain)” value in the experiment on K. aerogenes Ea-289 (setting [7]) and with K. aerogenes Ea-289 (erythromycin) was 1 in each case. Also, the “Inhibition efficiency” value in [2] is 57%. The MIC with S. aureus MM-O058 [3] was at least 1000 µM; in the experiment with S. aureus ATCC 25923 (setting [6]), 31.2 to 250 µM; in the experiment on S. aureus USA300 LAC [5] (setting [8]), at least 500 µM.
